Test results taken from patent US20210275698A1, “COMPOUNDS AND COMPOSITIONS FOR TARGETING MACROPHAGES AND OTHER MANNOSE-BINDING C-TYPE LECTIN RECEPTOR HIGH EXPRESSING CELLS AND METHODS OF TREATING AND DIAGNOSIS USING SAME” (priority 2015, published 2021).

Tests used:
[1] = tested on: monocyte-derived CD206+ macrophages; assay: CD206 targeting assay: uptake, killing and apoptosis of monocyte-derived CD206+ macrophages; assay type: cell-based
[2] = tested on: luciferase-expressing M. tuberculosis H37Rv strain (M.tb-Lux); assay: Anti-bacterial activity against M.tb in human macrophages (luminescence); assay type: cell-based; conditions: drug equivalency; up to 72 h

SMILES	killing / toxicity to CD206 expressing macrophages (Annexin levels) ([1]; FIG. 17)	apoptosis induction (Annexin-V expression on MOs and in tumor tissue) ([1]; overnight)	lowest concentration at which activity against M.tb was maintained [2] [µM]
COc1cccc2c1C(=O)c1c(O)c3c(c(O)c1C2=O)C[C@@](O)(C(=O)CO)C[C@@H]3O[C@H]1C[C@H](N)[C@H](O)[C@H](C)O1 [Docorubicin, doxorubicin]	no toxicity	less effect	
NNC(=O)c1ccncc1 [INH, isoniazid]			0.0312
